Experimental data published in article PMC7153278, “Discovery of Membrane-Bound Pyrophosphatase Inhibitors Derived from an Isoxazole Fragment” (ACS Medicinal Chemistry Letters, 2020).

Experiments:
[1] = molecular target: P. falciparum vacuolar H+-translocating pyrophosphatase (PfPPase-VP1) (Plasmodium falciparum, UniProt Q8IKR1); test: PfPPase-VP1 inhibition assay on membrane fractions from baculovirus-infected insect cells; assay type: biochemical; conditions: PfPPase-VP1 in the membrane
Description: We then addressed the potential of 12k and 12l for translation to pathogenic proteins. These analogues differ by replacement of two methyl groups by two tert-butyl groups. In order to do so, we expressed the PfPPase-VP1 gene (PF3D7_1456800) in baculovirus-infected insect cells and performed the inhibition assay on the PfPPase-VP1 in the membrane (the method and further analysis will be described in more detail elsewhere).
The inhibition assay was measured in 96 well plate assay as previously reported.5,6 Briefly, 1 µL of purified TmPPase (13 mg/mL) was reactivated in 99 µL of reactivation buffer (20 mM 2-(N-morpholino) ethanesulfonic acid (MES) pH 6.5, 3.5% (v/v) glycerol, 2 mM dithiothreitol (DTT), 4.5% dodecyl maltoside (DDM) and 12 mg/mL L-α-phosphatidylcholine from soybean) and incubated at 55 °C for 15 min. For the assay, to each tube strips, 0.2 µL of the reactivated enzyme was added to 14.8 µL of reaction buffer (200 mM Tris-Cl pH 8.0, 8.0 mM MgCl2, 333 mM KCl, and 67 mM NaCl) and 25 µL of inhibitor. The reaction mixtures were sealed with an adhesive sealing sheet (Thermo Scientific) and incubated at 71 °C for 5 min. […] 180 µL of each reaction mixtures was then transferred into a clear 96 well polystyrene microplate and the absorbance was measured at 860 nm using a microplate spectrophotometer (MultiSkan Go, Thermo Scientific). […]

[2] = molecular target: Thermotoga maritima mPPase (TmPPase) (Thermotoga maritima, UniProt Q9S5X0); test: TmPPase inhibition assay (96-well plate, orthophosphate determination); assay type: biochemical; conditions: computed using the pIC50 and the Heavy Atom Count (LEHA) normalization method, Discovery Studio
Thermotoga maritima mPPase (TmPPase), sequence (Q9S5X0 whole entry): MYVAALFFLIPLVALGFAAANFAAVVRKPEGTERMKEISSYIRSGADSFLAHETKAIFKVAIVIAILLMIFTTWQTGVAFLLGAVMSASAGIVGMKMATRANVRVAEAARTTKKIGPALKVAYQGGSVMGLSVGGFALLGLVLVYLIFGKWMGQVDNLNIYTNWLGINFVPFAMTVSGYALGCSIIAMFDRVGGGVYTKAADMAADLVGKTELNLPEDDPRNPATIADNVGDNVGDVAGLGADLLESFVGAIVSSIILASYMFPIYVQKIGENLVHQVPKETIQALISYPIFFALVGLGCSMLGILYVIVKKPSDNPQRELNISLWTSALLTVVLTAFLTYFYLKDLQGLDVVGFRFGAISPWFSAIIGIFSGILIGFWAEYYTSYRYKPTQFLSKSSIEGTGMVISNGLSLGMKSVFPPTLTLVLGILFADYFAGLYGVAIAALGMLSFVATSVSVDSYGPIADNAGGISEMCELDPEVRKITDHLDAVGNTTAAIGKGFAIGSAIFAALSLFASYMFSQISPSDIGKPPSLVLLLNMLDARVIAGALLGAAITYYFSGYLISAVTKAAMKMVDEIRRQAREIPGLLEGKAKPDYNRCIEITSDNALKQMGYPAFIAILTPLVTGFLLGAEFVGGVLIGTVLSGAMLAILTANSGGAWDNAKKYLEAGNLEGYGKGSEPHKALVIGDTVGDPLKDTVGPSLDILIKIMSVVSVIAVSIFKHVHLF
Description: The inhibition assay was measured in 96 well plate assay as previously reported.5,6 Briefly, 1 µL of purified TmPPase (13 mg/mL) was reactivated in 99 µL of reactivation buffer (20 mM 2-(N-morpholino) ethanesulfonic acid (MES) pH 6.5, 3.5% (v/v) glycerol, 2 mM dithiothreitol (DTT), 4.5% dodecyl maltoside (DDM) and 12 mg/mL L-α-phosphatidylcholine from soybean) and incubated at 55 °C for 15 min. For the assay, to each tube strips, 0.2 µL of the reactivated enzyme was added to 14.8 µL of reaction buffer (200 mM Tris-Cl pH 8.0, 8.0 mM MgCl2, 333 mM KCl, and 67 mM NaCl) and 25 µL of inhibitor. The reaction mixtures were sealed with an adhesive sealing sheet (Thermo Scientific) and incubated at 71 °C for 5 min. The reactions were started with the addition of 10 µL of 2 mM sodium pyrophosphate, further incubation at 71 °C for 5 min and stopped by placing the reaction mixtures on ice for 10 min. The color development was done with the addition of ammonium heptamolybdate + ascorbic acid solution on ice for 10 min and then 90 µL of arsenic solution, at room temperature, for a minimum of 30 min. 180 µL of each reaction mixtures was then transferred into a clear 96 well polystyrene microplate and the absorbance was measured at 860 nm using a microplate spectrophotometer (MultiSkan Go, Thermo Scientific). The pilot inhibitor screening of 16 phosphate-mimicking fragments was done at 100 μM inhibitor concentration. Further screening was done with three different concentrations; 1 μM, 5 μM and 50 μM for soluble compounds, and 1 μM, 5 μM, and 20 μM for sparingly soluble compounds.6 The best hits were validated using 8 concentrations in triplicate in TmPPase.
The potent hits 12k and 12l compounds were then tested on the P. falciparum (PfPPase-VP1) membrane fractions expressed in baculovirus-infected insect cells (the expression method and further enzyme analysis will be described in more detail elsewhere). Briefly, to each tube strips, 2.4 µL of PfPPase-VP1 membrane fraction (5 mg/mL) was added into 12.6 µL of reaction buffer (200 mM Tris-Cl pH 8.0, 8.0 mM MgCl2, 333 mM KCl, 67 mM NaCl, 3.3 mM NaF, and 17 μM Gramicidin D) and 25 µL of inhibitor. The reaction mixtures were incubated at 30 °C for 5 min and the assay was started by the addition of 10 µL of 2 mM sodium pyrophosphate and further incubation at 30 °C for 10 min. The reaction termination and color development were done as before.
The in vitro anti-plasmodial activity assay strain 3D7 was maintained in culture as described previously.7 Briefly, parasites were cultured in O+ human erythrocytes at 5% haematocrit in RPMI - 1640 medium supplemented with 0.5% Albumax II (Gibco, Carlsbad, CA, USA), 200 μM hypoxanthine (Sigma, St. Louis, MO, USA) and 20 μg/mL gentamycin (Gibco). Parasites were synchronized with the sorbitol method as described. 8 Test compound was dissolved in DMSO to make a stock solution of 10 mM. Two -fold serial dilutions of the test compound were made in the culture medium to cover the range of 400 µM – 400 nM. Fifty microliters of each dilution were mixed in 96 well plate with 150 µL of 2% haematocrit of 0.5% parasitemia (ring stage). DMSO concentration in the highest compound concentration w as 0.1%. After 72 h incubation at 37 °C, the parasite growth was quantified using fluorescent SYBR Green I ® -based assay as described. 9 The half-maximal inhibitory concentration (IC 50) of the test compound was assessed using the non-linear regression fit model in Prism 7 (GraphPad Software). The potent anti-malarial drug, artemisinin, was use in parallel as a positive control. Each concentration of the test compound was tested in duplicate and the assay was repeated three times. The mean and standard deviation of the three repeats were used to estimate the IC50.
IC50 determinations were done using R 3.6.110 and the n-parameter logistic regression (nplr) package11 version 0.1-7. In this package, the weighted nplr, given x (compound concentrations) and […]

P. falciparum vacuolar H+-translocating pyrophosphatase (PfPPase-VP1), sequence (Q8IKR1 entry or part of it): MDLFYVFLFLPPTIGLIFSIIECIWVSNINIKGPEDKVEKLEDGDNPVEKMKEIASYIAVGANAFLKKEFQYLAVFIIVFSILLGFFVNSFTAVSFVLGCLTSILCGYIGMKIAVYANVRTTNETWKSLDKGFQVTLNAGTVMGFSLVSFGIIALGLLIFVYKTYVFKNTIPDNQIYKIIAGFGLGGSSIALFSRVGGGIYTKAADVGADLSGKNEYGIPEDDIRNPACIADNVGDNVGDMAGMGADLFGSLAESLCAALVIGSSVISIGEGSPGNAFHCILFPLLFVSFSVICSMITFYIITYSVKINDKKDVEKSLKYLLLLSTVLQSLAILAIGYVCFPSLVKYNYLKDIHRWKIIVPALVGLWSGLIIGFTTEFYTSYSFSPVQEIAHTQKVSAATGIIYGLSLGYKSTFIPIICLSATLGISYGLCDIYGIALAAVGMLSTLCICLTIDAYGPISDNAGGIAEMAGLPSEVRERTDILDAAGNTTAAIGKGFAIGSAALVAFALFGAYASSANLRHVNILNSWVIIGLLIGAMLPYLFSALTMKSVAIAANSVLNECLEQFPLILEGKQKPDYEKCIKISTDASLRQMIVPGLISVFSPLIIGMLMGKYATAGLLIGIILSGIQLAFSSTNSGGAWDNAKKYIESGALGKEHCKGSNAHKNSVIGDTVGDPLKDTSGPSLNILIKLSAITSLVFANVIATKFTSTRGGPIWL

Structure (SMILES): CC(C)(C)c1cc(-c2cc(C(=O)Oc3ccccc3Br)no2)cc(C(C)(C)C)c1 [Compound 12l]
- IC50, PfPPase-VP1 activity [1]: did not show inhibition at the tested concentrations
- LE (ligand efficiency) [2]: 0.17
